What was measured:
[1] = tested on: murine bone marrow derived macrophages (BMDM); assay: Cytokine quantification in stimulated bone marrow derived macrophages; format: cell-based, C57BL/6 mice; settings: 12 hr pretreatment, then LPS or LPS+IFNγ 12 hr; vs PLGA and insert free controls
Method: For experiments, cells were seeded at 90 000 cells cm^−2 in 6 well culture plates. […] Unstimulated cells treated with identical groups were used as a negative control.
Cytokine quantification was conducted on cell supernatants using a mouse 10-plex pro-inflammatory assay or an interferon beta single plex assay (Eve Technologies, Calgary, AB) and calculated using their standard curve. Nitrite content was determined using a Greiss Reagent Kit.

Escherichia coli (BL21) = assay: In vitro E. coli bacterial growth assessment (optical density 600 nm); format: cell-based; settings: soluble; rich media (LB broth)
Method: Escherichia coli (BL21) was expanded overnight in LB broth, then seeded (1:100) in fresh medium according to growth conditions. Experiments were carried out in modified M9 minimal medium supplemented with appropriate carbon source (Acetate: 1%, Glucose 0.4%) or LB broth (Lennox). Time course assessment of soluble small molecule inhibition was conducted in 96-well culture plates fitted with a breathable film to encourage aeration and cultured for indicated time with incremental optical density measurement (600 nm). Growth media containing solubilized acid was neutralized with sodium hydroxide (pH=7.0).
To determine polymer antimicrobial properties in solution, six well plates were cast with equal mass polymer samples and polymer free culture plate (polystyrene) controls. […] Silver nanoparticles (10 nm) and PLLA (Mn=85-110 kDa, Sigma) were used as positive and negative controls respectively. Soluble assessment of DMI was conducted using the method described for polymer samples using a 12 well plate format (1.5 mL/well).

isocitrate lyase (ICL) = settings: under glucose deprived conditions; cited from earlier work

SMILES	IL-6 [1]	concentration showing sensitivity on rich media (Escherichia coli (BL21))	inhibition of isocitrate lyase (ICL) (isocitrate lyase (ICL))
C=C(CC(=O)OC)C(=O)OC [DMI, dimethyl itaconate]	marked	> 7.5 mM	
C=C(CC(=O)O)C(=O)O [ITA, itaconic acid]			potent inhibitor
